Laboratory results from patent publication US11028058B2, “Heterocyclic compounds as adenosine antagonists” (NUVATION BIO INC., priority 2017, dated 2021).

Experiments:
[1] = target: T1, HEK-293 cells expressing human recombinant adenosine A2A receptor (Homo sapiens (Human), UniProt P29274); assay: cAMP assay, Assay 1 (HTRF kit); type: cell-based; conditions: HEK293, 100 nM, read-out: A2a cAMP (% inh @ 100 nM)
Protocol: (§1) The functional activity of compounds was tested using one of the two assays to detect the present of cAMP. Activation of G-protein coupled receptors (such as A2A) results in activation of adenylcyclase which converts ATP into cAMP which is used as a downstream signaling molecule. Therefore, molecules which act as GPCR (or specifically A2A receptor) antagonists cause a decrease in intracellular cAMP concentration.
(§2) Both assays used HEK-293 cells expressing human recombinant adenosine A2A receptor were grown prior to the test in media without antibiotic.
12 μL of cells were mixed with 6 μL of the test compound at increasing concentrations and then incubated for 10 min. Thereafter 6 μL of the reference agonist was added at a final concentration corresponding to the historical EC80. The plates were then incubated for 30 min at room temperature. After addition of the lysis buffer and 1 hour incubation, cAMP concentrations were estimated, according to the manufacturer specification, with the HTRF® kit.

[2] = target: adenosine A2A receptor (Homo sapiens (Human), UniProt P29274); assay: A2A adenosine receptor radioligand binding competition assay (filter plates)
adenosine A2A receptor, sequence (P29274 whole entry): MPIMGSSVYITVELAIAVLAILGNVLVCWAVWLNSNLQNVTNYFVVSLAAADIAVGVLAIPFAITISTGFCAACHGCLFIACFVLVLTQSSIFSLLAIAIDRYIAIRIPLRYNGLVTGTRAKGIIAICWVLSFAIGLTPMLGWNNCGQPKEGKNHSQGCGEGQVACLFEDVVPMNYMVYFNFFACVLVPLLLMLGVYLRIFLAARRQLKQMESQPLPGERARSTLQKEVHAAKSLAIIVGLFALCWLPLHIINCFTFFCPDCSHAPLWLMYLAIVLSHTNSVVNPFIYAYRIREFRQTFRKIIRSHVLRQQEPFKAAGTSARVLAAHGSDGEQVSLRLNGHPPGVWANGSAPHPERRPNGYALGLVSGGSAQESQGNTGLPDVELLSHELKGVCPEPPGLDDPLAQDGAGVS
Protocol: Binding of selected compounds to the adenosine A2A, A1, A2B, and A3 receptors was tested using a binding competition assay.
The general protocol for the radioligand binding competition assay was as follows. Competition binding was performed in duplicate in the wells of a 96 well plate (Master Block, Greiner, 786201) containing binding buffer (optimized for each receptor), membrane extracts (amount of protein/well optimized for each receptor), radiotracer (final concentration optimized for each receptor), and test compound. Nonspecific binding was determined by co-incubation with 200-fold excess of cold competitor. The samples were incubated in a final volume of 0.1 mL at 25° C. for 60 minutes and then filtered over filter plates. Filters were washed six times with 0.5 mL of ice-cold washing buffer (optimized for each receptor) and 50 μL of Microscint 20 (Packard) were added on each filter. The filter plates were sealed, incubated 15 min on an orbital shaker and scintillation counted with a TopCount for 30 sec/filter.
(§3) For the A2A adenosine receptor radioligand binding assay, the following modifications were made to the general protocol. GF/C filters (Perkin Elmer, 6005174), presoaked in 0.01% Brij for 2 h at room temperature were used. Filters were washed six times with 0.5 mL of ice-cold washing buffer (50 mM Tris pH 7.4) and 50 μL of Microscint 20 (Packard) was added in each well. The plates were then incubated for 15 min on an orbital shaker and then counted with a TopCount™ for 1 min/well. Another radioligand binding assay was used to evaluate the binding affinity for the adenosine A2A receptor assay was performed in duplicate in the wells of a 384 plate. Assay buffer contained DPBS 500 mM, MgCl2 0.1 mM, and 1% DMSO. Membrane-bead suspension was prepared by mixing 25.98 μL of human adenosine A2A membrane preparation (Perkin Elmer, RBHA2AM400UA) at 33.4 μg/mL, 28 μL of ADA at 20 μg/mL, and 932 μL of SPA beads at 3.33 mg/mL) and incubated the mixture for 20 min at room temperature. Mixed 20 μL of radiotracer (^3H-SCH 58261) at 15 nM to each well containing test articles at various concentrations and centrifuge the plate at 1000 rpm for 1 minute. Added 30 μL of the membraine-bead suspension to each well. Sealed the plates and incubated for 1 hr at room temperature with vigorous mixing on a plate mixer. Plates were read on Microbeta^2 (Perkin Elmer, 2450-0010).

[3] = target: T1, HEK-293 cells expressing human recombinant adenosine A2A receptor; assay: cAMP assay, Assay 2 (Eu-cAMP tracer / ULight-anti-cAMP); type: cell-based; conditions: Assay 2; for inhibition at 0.1 µM: HEK293, 100 nM, read-out: A2a cAMP % inh @ 100 nM
Protocol: as §1, §2
Assay 2 (Table B2-2): 100 nL of test articles at 100× of final concentration were transferred to assay plate by Echo. Cells were washed twice with 5 mL of PBS […]. After aspirating the PBS and adding 1.5 mL versine, cells were incubated at 37° C. for 2-5 min. After centrifugation, 4 mL of medium was added and adjusted cell density to 5,000 cells/well with Stimulation Buffer. 10 μL of cells were aliquoted to the assay plate, centrifuged at 1000 rpm for 1 minute, and incubated for 60 minutes at room temperature. 5 μL 4×Eu-cAMP tracer solution and 5 μL 4×Ulight™-anti-cAMP solution were added to assay plate, followed by centrifugation and 60-minute incubation at room temperature. Plates were read on EnVision.

[4] = target: human adenosine A2A membrane preparation (Homo sapiens (Human), UniProt P29274); assay: Adenosine A2A receptor radioligand binding assay (SPA beads, 3H-SCH 58261, 384 plate); conditions: for IC50: Table B1-2; for inhibition at 3 µM: read-out: A2a binding % inh @ 3000 nM; for inhibition at 0.01 µM: read-out: A2a binding % inh @ 10 nM; for inhibition at 0.1 µM: read-out: A2a binding % inh @ 100 nM; for inhibition at 1 µM: read-out: A2a binding % inh @ 1000 nM; for inhibition at 0.001 µM: read-out: A2a binding % inh @ 1 nM
human adenosine A2A membrane preparation, sequence (P29274 whole entry): as above
Protocol: as §3

T1 sequence (P29274 whole entry): as above

## Cc1nc2cc(-c3ncc(N)nc3-c3ccccc3)ccc2[nH]1 [1.9, 5-(2-methyl-1H-benzo[d]imidazol-5-yl)-6-phenylpyrazin-2-amine]
[1]
  inhibition at 0.1 µM: 49%

## Nc1cnc(-c2cc(Cl)c(O)c(Cl)c2)c(-c2ccccc2)n1 [Compound 1.2, 4-(5-amino-3-phenylpyrazin-2-yl)-2,6-dichlorophenol]
[2]
  A2A radioligand binding competition assay % residual binding @ 100 nM: ND/ND/ND/62%
[1]
  inhibition at 0.1 µM: 100%

## CC(=O)Nc1cnc(-c2ccc(O)c(Cl)c2)c(-c2ccccc2)n1 [Compound 1.3, N-(5-(3-chloro-4-hydroxyphenyl)-6-phenylpyrazin-2-yl)acetamide]
[2]
  A2A radioligand binding competition assay % residual binding @ 100 nM: ND/ND/ND/57%
[1]
  inhibition at 0.1 µM: 100%

## N#Cc1nc(-c2ccc3ncccc3c2)c(-c2ccccc2)nc1N [Compound 1.19, 3-amino-5-phenyl-6-(quinolin-6-yl)pyrazine-2-carbonitrile]
[2]
  A2A radioligand binding competition assay % residual binding @ 3000 nM: 4/ND/ND/ND %
[1]
  inhibition at 0.1 µM: 100%

## Nc1cnc(-c2ccc3[nH]ccc3c2)c(-c2ccccc2)n1 [Compound No. 1.4, 5-(1H-indol-5-yl)-6-phenylpyrazin-2-amine]
[1]
  inhibition at 0.1 µM: 1.4%

## CC(C)(C)c1cc(-c2ncc(N)nc2-c2ccccc2)ccc1O [Compound No. 1.6, 4-(5-amino-3-phenylpyrazin-2-yl)-2-tert-butylphenol]
[1]
  inhibition at 0.1 µM: 47%

## Nc1cnc(-c2ccc(O)cc2)c(-c2ccccc2)n1 [Compound No. 1.7, 4-(5-amino-3-phenylpyrazin-2-yl)phenol]
[2]
  A2A radioligand binding competition assay % residual binding @ 300 nM: ND/ND/100/ND %
[1]
  inhibition at 0.1 µM: 100%

## Nc1cnc(-c2ccc(O)c(Cl)c2)c(-c2ccco2)n1 [Compound No. 1.8, 4-(5-amino-3-(furan-2-yl)pyrazin-2-yl)-2-chlorophenol]
[2]
  A2A radioligand binding competition assay % residual binding @ 300 nM: ND/ND/39/ND %
[1]
  inhibition at 0.1 µM: 100%

## Nc1cnc(-c2ccc3[nH]cnc3c2)c(-c2ccccc2)n1 [Compound No. 1.10, 5-(1H-benzo[d]imidazol-6-yl)-6-phenylpyrazin-2-amine]
[2]
  A2A radioligand binding competition assay % residual binding @ 100 nM: 77%
  A2A radioligand binding competition assay % residual binding @ 300 nM: 70%
  A2A radioligand binding competition assay % residual binding @ 1000 nM: 64%
  A2A radioligand binding competition assay % residual binding @ 3000 nM: 39%
[1]
  inhibition at 0.1 µM: 100%

## N#Cc1cc(-c2ncc(N)nc2-c2ccccc2)ccc1O [Compound No. 1.11, 5-(5-amino-3-phenylpyrazin-2-yl)-2-hydroxybenzonitrile]
[2]
  A2A radioligand binding competition assay % residual binding @ 300 nM: ND/ND/126/ND %
[1]
  inhibition at 0.1 µM: 100%

## Nc1cnc(-c2ccc3ncccc3c2)c(-c2ccccc2)n1 [Compound No. 1.12, 6-phenyl-5-(quinolin-6-yl)pyrazin-2-amine]
[2]
  A2A radioligand binding competition assay % residual binding @ 300 nM: 66%
  A2A radioligand binding competition assay % residual binding @ 1000 nM: 12%
  A2A radioligand binding competition assay % residual binding @ 3000 nM: 12%
[1]
  inhibition at 0.1 µM: 94%

## Cc1ccn(-c2nc(N)cnc2-c2cc(Cl)c3ncccc3c2)n1 [Compound No. 1.271, 5-(8-chloroquinolin-6-yl)-6-(3-methyl-1H-pyrazol-1-yl)pyrazin-2-amine]
[3]
  IC50: 50 nM
[4]
  IC50: 2.1 nM

## NC(=O)c1nc(-c2ccc3ncccc3c2)c(-c2ccccc2)nc1N [Compound No. 1.272, 3-amino-5-phenyl-6-(quinolin-6-yl)pyrazine-2-carboxamide]
[3]
  inhibition at 0.1 µM: 96%
[4]
  inhibition at 3 µM: 80%

## Cc1cccc(CNC(=O)c2nc(-c3ccc4ncccc4c3)c(-c3ccccc3)nc2N)n1 [Compound No. 1.273, 3-amino-N-((6-methylpyridin-2-yl)methyl)-5-phenyl-6-(quinolin-6-yl)pyrazine-2-carboxamide]
[3]
  IC50: 12 nM
[4]
  inhibition at 3 µM: 100%

## N#Cc1nc(-c2ccc3[nH]ncc3c2)c(-c2ccccc2)nc1N [Compound No. 1.274, 3-amino-6-(1H-indazol-5-yl)-5-phenylpyrazine-2-carbonitrile]
[3]
  inhibition at 0.1 µM: 60%
[4]
  inhibition at 3 µM: 80%

## Nc1nc(-c2ccccc2)c(-c2ccc3ncccc3c2)nc1N1CCOCC1 [Compound No. 1.275, 3-morpholino-6-phenyl-5-(quinolin-6-yl)pyrazin-2-amine]
[3]
  inhibition at 0.1 µM: 0%
[4]
  inhibition at 3 µM: 11%

## CN1CCN(c2nc(-c3ccc4ncccc4c3)c(-c3ccccc3)nc2N)CC1 [Compound No. 1.276]
[3]
  inhibition at 0.1 µM: 0%
[4]
  inhibition at 3 µM: 24%

## N#Cc1nc(-c2cc(Cl)c3[nH]cnc3c2)c(-c2ccccc2)nc1N [Compound No. 1.277, 3-amino-6-(7-chloro-1H-benzimidazol-5-yl)-5-phenylpyrazine-2-carbonitrile]
[3]
  inhibition at 0.1 µM: 44%
[4]
  inhibition at 3 µM: 83%

## Nc1cnc(-c2cc(Cl)c3ncccc3c2)c(-c2cc3ccccc3o2)n1 [Compound No. 1.278]
[3]
  IC50: 304 nM
[4]
  inhibition at 3 µM: 95%

## Nc1cnc(-c2ccc3ncccc3c2)c(-c2nccs2)n1 [Compound No. 1.279, 5-(quinolin-6-yl)-6-(1,3-thiazol-2-yl)pyrazin-2-amine]
[3]
  inhibition at 0.1 µM: 9%
[4]
  inhibition at 3 µM: 58%

## Cc1ccn(-c2nc(N)cnc2-c2ccc3ncccc3c2)n1 [Compound No. 1.280]
[3]
  inhibition at 0.1 µM: 51%
[4]
  inhibition at 3 µM: 75%

## Cn1ccc(-c2nc(N)cnc2-c2ccc3ncccc3c2)n1 [Compound No. 1.285, 6-(1-methyl-1H-pyrazol-3-yl)-5-(quinolin-6-yl)pyrazin-2-amine]
[3]
  inhibition at 0.1 µM: 34%
[4]
  inhibition at 0.01 µM: 56%
  inhibition at 0.1 µM: 76%
  inhibition at 1 µM: 90%

## Cc1ccn(-c2nc(N)cnc2-c2ccc3ncsc3c2)n1 [Compound No. 1.286, 5-(benzo[d]thiazol-6-yl)-6-(3-methyl-1H-pyrazol-1-yl)pyrazin-2-amine]
[3]
  inhibition at 0.1 µM: 20%
[4]
  inhibition at 0.001 µM: 40%
  inhibition at 0.01 µM: 87%
  inhibition at 0.1 µM: 96%
  inhibition at 1 µM: 86%

## Cc1ccn(-c2nc(N)cnc2-c2ccc3[nH]ncc3c2)n1 [Compound No. 1.287, 5-(1H-indazol-5-yl)-6-(3-methyl-1H-pyrazol-1-yl)pyrazin-2-amine]
[3]
  inhibition at 0.1 µM: 16%
[4]
  inhibition at 0.001 µM: 42%
  inhibition at 0.01 µM: 77%
  inhibition at 0.1 µM: 90%
  inhibition at 1 µM: 80%

## Cc1ncc(-c2nc(N)cnc2-c2ccc3ncccc3c2)s1 [Compound No. 1.288, 6-(2-methylthiazol-5-yl)-5-(quinolin-6-yl)pyrazin-2-amine]
[3]
  IC50: 1050 nM
[4]
  IC50: 55.5 nM
  inhibition at 0.001 µM: 42%
  inhibition at 0.01 µM: 83%
  inhibition at 0.1 µM: 86%
  inhibition at 1 µM: 84%

## Cc1ccn(-c2nc(N)c(C#N)nc2-c2ccc3ncccc3c2)n1 [Compound No. 1.290, 3-amino-5-(3-methyl-1H-pyrazol-1-yl)-6-(quinolin-6-yl)pyrazine-2-carbonitrile]
[3]
  IC50: 35.7 nM
[4]
  IC50: 3.3 nM
  inhibition at 0.001 µM: 57%
  inhibition at 0.01 µM: 85%
  inhibition at 0.1 µM: 89%
  inhibition at 1 µM: 89%
